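How tested: cells in 96-well plates exposed to compound for 48 hours at five concentrations. Definition used: TGI = concentration required for complete inhibition of growth.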
Experiments:
Experiment in all cases: inhibition of tumour cell growth, NCI panel, 48 h
SF-539 CNS = test system: SF-539 CNS
NCI-H460 lung = test system: NCI-H460 lung
BT-549 breast = test system: BT-549 breast
SK-MEL-2 melanoma = test system: SK-MEL-2 melanoma
HOP-92 NSCLC = test system: HOP-92 NSCLC
K-562 leukemia = test system: K-562 leukemia
PC-3 prostate = test system: PC-3 prostate
HCC-2998 colon = test system: HCC-2998 colon
SF-268 CNS = test system: SF-268 CNS
MDA-MB-231 breast = test system: MDA-MB-231 breast
OVCAR-8 ovarian = test system: OVCAR-8 ovarian
HCT-15 colon = test system: HCT-15 colon
SF-295 CNS = test system: SF-295 CNS
OVCAR-5 ovarian = test system: OVCAR-5 ovarian
MOLT-4 leukemia = test system: MOLT-4 leukemia
KM12 colon = test system: KM12 colon
NCI-H226 lung = test system: NCI-H226 lung
T-47D breast = test system: T-47D breast
HOP-62 NSCLC = test system: HOP-62 NSCLC
UACC-257 melanoma = test system: UACC-257 melanoma
A498 renal = test system: A498 renal
RXF 393 renal = test system: RXF 393 renal
COLO 205 colon = test system: COLO 205 colon
HL-60(TB) leukemia = test system: HL-60(TB) leukemia
CCRF-CEM leukemia = test system: CCRF-CEM leukemia
NCI/ADR-RES ovarian = test system: NCI/ADR-RES ovarian
A549 NSCLC = test system: A549 NSCLC
MCF7 breast = test system: MCF7 breast
SR leukemia = test system: SR leukemia
M14 melanoma = test system: M14 melanoma
UACC-62 melanoma = test system: UACC-62 melanoma
786-0 renal = test system: 786-0 renal
OVCAR-3 ovarian = test system: OVCAR-3 ovarian
TK-10 renal = test system: TK-10 renal
RPMI-8226 leukemia = test system: RPMI-8226 leukemia
MALME-3M melanoma = test system: MALME-3M melanoma
NCI-H23 lung = test system: NCI-H23 lung
U251 CNS = test system: U251 CNS
DU-145 prostate = test system: DU-145 prostate
SW-620 colon = test system: SW-620 colon
HT29 colon = test system: HT29 colon
OVCAR-4 ovarian = test system: OVCAR-4 ovarian
ACHN renal = test system: ACHN renal
UO-31 renal = test system: UO-31 renal
HS 578T breast = test system: HS 578T breast
SNB-75 CNS = test system: SNB-75 CNS
SN12C renal = test system: SN12C renal
SK-MEL-5 melanoma = test system: SK-MEL-5 melanoma
MDA-MB-435 = test system: MDA-MB-435
NCI-H522 lung = test system: NCI-H522 lung
LOX IMVI melanoma = test system: LOX IMVI melanoma
CAKI-1 renal = test system: CAKI-1 renal
SNB-19 CNS = test system: SNB-19 CNS
SK-MEL-28 melanoma = test system: SK-MEL-28 melanoma
SK-OV-3 ovarian = test system: SK-OV-3 ovarian
HCT-116 colon = test system: HCT-116 colon
EKVX NSCLC = test system: EKVX NSCLC
MDA-N = test system: MDA-N
IGROV1 ovarian = test system: IGROV1 ovarian

SMILES: C=CCOc1ccccc1N=N/C(C#N)=N\Nc1ccccc1OCC=C
- TGI (SF-539 CNS): > 100 µM
- TGI (NCI-H460 lung): > 100 µM
- TGI (BT-549 breast): > 100 µM
- TGI (SK-MEL-2 melanoma): > 100 µM
- TGI (HOP-92 NSCLC): > 100 µM
- TGI (K-562 leukemia): > 100 µM
- TGI (PC-3 prostate): > 100 µM
- TGI (HCC-2998 colon): > 100 µM
- TGI (SF-268 CNS): > 100 µM
- TGI (MDA-MB-231 breast): > 100 µM
- TGI (OVCAR-8 ovarian): > 100 µM
- TGI (HCT-15 colon): > 100 µM
- TGI (SF-295 CNS): > 100 µM
- TGI (OVCAR-5 ovarian): > 100 µM
- TGI (MOLT-4 leukemia): > 100 µM
- TGI (KM12 colon): > 100 µM
- TGI (NCI-H226 lung): > 100 µM
- TGI (T-47D breast): > 100 µM
- TGI (HOP-62 NSCLC): > 100 µM
- TGI (UACC-257 melanoma): > 100 µM
- TGI (A498 renal): > 100 µM
- TGI (RXF 393 renal): > 100 µM
- TGI (COLO 205 colon): > 100 µM
- TGI (HL-60(TB) leukemia): > 100 µM
- TGI (CCRF-CEM leukemia): > 100 µM
- TGI (NCI/ADR-RES ovarian): > 100 µM
- TGI (A549 NSCLC): > 100 µM
- TGI (MCF7 breast): > 100 µM
- TGI (SR leukemia): > 100 µM
- TGI (M14 melanoma): > 100 µM
- TGI (UACC-62 melanoma): > 100 µM
- TGI (786-0 renal): > 100 µM
- TGI (OVCAR-3 ovarian): > 100 µM
- TGI (TK-10 renal): > 100 µM
- TGI (RPMI-8226 leukemia): > 100 µM
- TGI (MALME-3M melanoma): > 100 µM
- TGI (NCI-H23 lung): > 100 µM
- TGI (U251 CNS): > 100 µM
- TGI (DU-145 prostate): > 100 µM
- TGI (SW-620 colon): > 100 µM
- TGI (HT29 colon): > 100 µM
- TGI (OVCAR-4 ovarian): > 100 µM
- TGI (ACHN renal): > 100 µM
- TGI (UO-31 renal): > 100 µM
- TGI (HS 578T breast): > 100 µM
- TGI (SNB-75 CNS): > 100 µM
- TGI (SN12C renal): > 100 µM
- TGI (SK-MEL-5 melanoma): > 100 µM
- TGI (MDA-MB-435): > 100 µM
- TGI (NCI-H522 lung): > 100 µM
- TGI (LOX IMVI melanoma): > 100 µM
- TGI (CAKI-1 renal): > 100 µM
- TGI (SNB-19 CNS): > 100 µM
- TGI (SK-MEL-28 melanoma): > 100 µM
- TGI (SK-OV-3 ovarian): > 100 µM
- TGI (HCT-116 colon): > 100 µM
- TGI (EKVX NSCLC): > 100 µM
- TGI (MDA-N): 94.7 µM
- TGI (IGROV1 ovarian): > 100 µM

SMILES: Cc1ccc(OCC2OC(n3cnc4nc(Cl)nc(Cl)c43)CC2Oc2ccc(C)cc2)cc1 (stereo not drawn)
- TGI (SF-539 CNS): 13.9 µM
- TGI (NCI-H460 lung): 20.2 µM
- TGI (BT-549 breast): 30.4 µM
- TGI (SK-MEL-2 melanoma): 18.1 µM
- TGI (HOP-92 NSCLC): 9.88 µM
- TGI (K-562 leukemia): 4.83 µM
- TGI (PC-3 prostate): 24.5 µM
- TGI (HCC-2998 colon): 12.2 µM
- TGI (SF-268 CNS): 23.4 µM
- TGI (MDA-MB-231 breast): 6.56 µM
- TGI (OVCAR-8 ovarian): 59.5 µM
- TGI (HCT-15 colon): 6.33 µM
- TGI (SF-295 CNS): 30.6 µM
- TGI (OVCAR-5 ovarian): 32.1 µM
- TGI (MOLT-4 leukemia): 5.76 µM
- TGI (KM12 colon): 23.7 µM
- TGI (NCI-H226 lung): 36.3 µM
- TGI (T-47D breast): 30.7 µM
- TGI (HOP-62 NSCLC): 34.8 µM
- TGI (UACC-257 melanoma): 29.6 µM
- TGI (A498 renal): 72.2 µM
- TGI (RXF 393 renal): 15.7 µM
- TGI (COLO 205 colon): 27.6 µM
- TGI (HL-60(TB) leukemia): 3.94 µM
- TGI (CCRF-CEM leukemia): > 23.1 µM
- TGI (NCI/ADR-RES ovarian): 37.8 µM
- TGI (A549 NSCLC): > 63.3 µM
- TGI (MCF7 breast): 20.6 µM
- TGI (SR leukemia): 5.65 µM
- TGI (M14 melanoma): 20.5 µM
- TGI (UACC-62 melanoma): 20.5 µM
- TGI (786-0 renal): 19.9 µM
- TGI (OVCAR-3 ovarian): 18.9 µM
- TGI (TK-10 renal): 28.7 µM
- TGI (RPMI-8226 leukemia): 9.35 µM
- TGI (MALME-3M melanoma): 33.9 µM
- TGI (NCI-H23 lung): 24.5 µM
- TGI (U251 CNS): 55.5 µM
- TGI (DU-145 prostate): 27.2 µM
- TGI (SW-620 colon): 28 µM
- TGI (HT29 colon): 20.4 µM
- TGI (OVCAR-4 ovarian): 56.1 µM
- TGI (ACHN renal): 7.9 µM
- TGI (UO-31 renal): 22 µM
- TGI (HS 578T breast): 54.6 µM
- TGI (SNB-75 CNS): 28.5 µM
- TGI (SN12C renal): 20.5 µM
- TGI (SK-MEL-5 melanoma): 30.8 µM
- TGI (MDA-MB-435): 24.3 µM
- TGI (NCI-H522 lung): 4.31 µM
- TGI (LOX IMVI melanoma): 3.45 µM
- TGI (CAKI-1 renal): 9.75 µM
- TGI (SNB-19 CNS): 30.1 µM
- TGI (SK-MEL-28 melanoma): 14.1 µM
- TGI (SK-OV-3 ovarian): > 89.5 µM
- TGI (HCT-116 colon): 17.9 µM
- TGI (EKVX NSCLC): 34 µM
- TGI (MDA-N): 13.7 µM
- TGI (IGROV1 ovarian): 19.7 µM

— PubChem BioAssay (NCI)
